Measured values taken from PubChem BioAssay (NCI).
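Grown in 96-well plates, cells were treated for 48 hours with each compound at five concentrations. Insufficient inhibition: endpoint recorded as highest concentration tested. TGI marks complete inhibition of growth.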

Key:
Experiment in all cases: DTP human tumour cell line panel, 48 h
[1] = tested on: CAKI-1 renal
[2] = tested on: UACC-62 melanoma
[3] = tested on: SNB-78 CNS
[4] = tested on: CCRF-CEM leukemia
[5] = tested on: HT29 colon
[6] = tested on: LOX IMVI melanoma
[7] = tested on: COLO 205 colon
[8] = tested on: A549 NSCLC
[9] = tested on: ACHN renal
[10] = tested on: NCI-H23 lung
[11] = tested on: OVCAR-5 ovarian
[12] = tested on: KM20L2 colon
[13] = tested on: MOLT-4 leukemia
[14] = tested on: SK-MEL-28 melanoma
[15] = tested on: HCC-2998 colon
[16] = tested on: SR leukemia
[17] = tested on: TK-10 renal
[18] = tested on: NCI-H226 lung
[19] = tested on: SK-MEL-2 melanoma
[20] = tested on: SK-OV-3 ovarian

Compound | TGI [1] [µM] | TGI [2] [µM] | TGI [3] [µM] | TGI [4] [µM] | TGI [5] [µM] | TGI [6] [µM] | TGI [7] [µM] | TGI [8] [µM] | TGI [9] [µM] | TGI [10] [µM] | TGI [11] [µM] | TGI [12] [µM] | TGI [13] [µM] | TGI [14] [µM] | TGI [15] [µM] | TGI [16] [µM] | TGI [17] [µM] | TGI [18] [µM] | TGI [19] [µM] | TGI [20] [µM]
CCCCN=C1OCc2[nH][nH]c(=O)c21 | > 100 | > 100 | > 100 | > 100 | > 100 | > 100 | > 100 | > 100 | > 100 | > 100 | > 100 | > 100 | > 100 | > 100 | > 100 | > 100 | > 100 | > 100 | > 100 | > 100
O=c1nc2sc3ccc4ccccc4c3n2[nH]c1=O |  | > 100 | > 100 | > 100 | > 100 |  | > 100 | > 100 |  | > 100 |  | 99 | > 100 | > 100 | > 100 |  | > 100 | > 100 |  | > 100
C[C@]12CC[C@@H]3c4ccc(OCCN5CCCC5)cc4CC[C@H]3[C@@H]1CCC2=O | 81.5 | 69.8 |  | > 100 | > 100 | 29.7 | 35.6 | > 100 | > 100 | > 100 | 97.4 |  | 70.2 | > 100 | 25.1 | > 100 | > 100 | 54 | 35.1 | > 100
CCCCCCCCCCCCCCCC(=O)OC1C(O)C(CO)OC(OC)C1NC(=O)N(CCCl)N=O (centres undefined) | > 100 | 17.1 | 40.2 |  | 26.8 | 23.9 | 40.4 | 23.8 | 21.9 | 21 | 30.4 | 32.4 | 23 | 27.5 |  | 23.7 | 28.9 | 33.7 | 44.3 | 
